melting point | Structure (SMILES)
233 °C | CC1(C)CCC(C)(C)c2cc(-c3cc(-c4ccc(C(=O)O)cc4)ccc3OCCNC3CC3)ccc21
125 to 126 °C | O=C(c1cccnc1)N1CCC(c2ccc(Cl)cc2)=N1
255 °C | COc1ccc(-c2[nH]nc3c2C(=O)c2c(NC(=O)Cc4ccccc4OC)cccc2-3)cc1
247 to 249 °C | COc1cc(-c2nc(-c3ccc(N(C)C)cc3)c(C)s2)cc(OC)c1OC(C)=O
55 to 57 °C | CCCCn1c(=O)c2c(ncn2S(=O)(=O)CCCC)n(CCCC)c1=O
93.5 to 94.2 °C | CC(C)c1cc(Sc2cc(C(C)C)c(O)c(C(C)C)c2)cc(C(C)C)c1O
197 to 200 °C | O=C(NC(NC(=S)Nc1ccccc1F)C(F)(F)F)c1ccc(Cl)cc1 (stereo not given)
88 °C | CCN(CC)C(=O)COc1nc(-c2ccccc2)c2ccccc2n1
148 to 150 °C | CC(C)(C)c1ccc(OCCOc2ccccc2N)c(N)c1
160 °C | CC(C)(C)CNc1nc(C#N)nc2ccc(OCc3ccccn3)cc12
156 to 164 °C | COC(=O)C1CCCCCCCSC[C@@H](C(=O)OC)NC1=O (stereo not given in full)
266 °C | Cc1nc(NC(=O)c2cnn3c(C(F)(F)F)cc(-c4ccc(C(F)(F)F)cc4)nc23)sc1S(=O)(=O)N(C)CCO
89 °C | C=CCOC(=O)NC(=O)C(C)(c1ccccc1)c1ccccc1
115 to 117 °C | O=C(NCc1ccccc1Cl)c1cccnc1Oc1cccc(F)c1
209 to 211 °C | O=C1NC(=O)C2(CC(O)c3ccc(F)cc32)N1 (stereo not given)
127 to 128 °C | CCC1(CCCCCN2CCN(c3ccccn3)CC2)C(=O)Nc2ccccc21 (stereo not given)
176 to 178 °C | O=C(Cc1ccccc1Cl)N1CCCc2ncc3ccccc3c21
80 to 82 °C | CCOC(=O)C(C)Sc1nc(-c2cc(C(C)(C)C)c(O)c(C(C)(C)C)c2)c[nH]1 (stereo not given)
98 to 99.8 °C | CCOC(=O)Cn1c(-c2cccc(Cl)c2)nc2cccnc21
> 300 °C | COc1cc(C)cc(C(=O)NC(C)P(=O)(O)O)c1C1=CC(=O)c2c(O)cccc2C1=O (stereo not given)
134 to 136 °C | COc1c(Br)cc(C2CC=CCC2[N+](=O)[O-])c(OC)c1OC (stereo not given)
148 to 149 °C | Cc1c(NC(=O)c2ccc(OCC3CCOC3)cc2)ccc2cc(CNC3CCCC3)cnc12 (stereo not given)
146 to 148 °C | C1=C(c2cccnc2)CCC(N2CCN(c3ccccn3)CC2)C1 (stereo not given)
156 to 159 °C | CCOc1cc2ncc(C#N)c(NCc3cccc(Br)c3)c2cc1OCC

melting point | Structure (SMILES)
177 to 181 °C | Cc1oc(-c2ccc(Cl)cc2)cc1C(=O)NCc1ccc2cc(OCC(=O)O)ccc2c1
115 to 116 °C | c1cc2c(cc1C1CCC3(CC1)OCCO3)OCO2
167 to 168 °C | CCCn1nc2c(N)nc3c(c2c1CC(C)C)CCCC3
115 to 117 °C | O=[N+]([O-])c1ccc(CN2CCNS2(=O)=O)cc1
124 to 128 °C | CC(C)Oc1ccc(-c2ccc3oc(C4CCN(C(=O)OC(C)(C)C)CC4)nc3c2)cc1F
97 to 98 °C | O=C(c1ccccc1)c1ccc(-c2nc(COc3cccc(CCCn4ccnc4)c3)co2)cc1
130 to 131 °C | CC(C)(C)c1nc(-c2ccc(F)cc2)c(-c2ccc(S(C)(=O)=O)cc2)o1
59 to 61 °C | CC1(C)c2cc(OS(C)(=O)=O)ccc2OC1Cl (stereo not given)
118 to 119 °C | C#CCN1Cc2cccnc2N(c2cccc(Br)c2)C1=O
106 to 107 °C | CC(C)(C)N(O)CP(=O)(OCc1ccccc1)OCc1ccccc1
131 to 132 °C | COCCc1nc2c(N)nc3ccccc3c2n1CCCCCC(=O)N1CCOCC1
212 to 213 °C | CCN1CCN(c2ccnc(-c3nc(=O)c4ccccc4s3)c2)C1=O
70 to 72 °C | COc1ccc(C=O)cc1OC(=O)c1ccccc1
145 to 147 °C | O=C(C(=O)N1CCC(Oc2cccc(Cl)c2)CC1)c1c[nH]c2ccccc12
154 to 155 °C | CCOC(=O)C1=Cc2cc(Cl)cc(C)c2NC1C(F)(F)F (stereo not given)
192 to 193 °C | COc1cc(N)c(Cl)cc1C(=O)NC1CC2CCCCN2C1 (stereo not given)
148 to 150 °C | CC1(C)CC(=O)c2cc(SCc3ccccc3)[nH]c2C1
293 to 294 °C | Cc1ccc(N2C(=O)C(O)=C(C(=O)c3ccc(C(C)C)cc3)C2c2ccc(N3CCOCC3)cc2)nn1 (stereo not given)
169 to 172 °C | Nc1ccc2c(c1)-c1ccccc1S2=O (stereo not given)
183 to 184 °C | CN1C(=O)CCC2(C)C3CCC4(C)C(Oc5ccc([N+](=O)[O-])cc5)CCC4C3CCC12 (stereo not given)
158 to 161 °C | COC(=O)c1ccc(-c2ccc3nc(OC)ccc3c2)cc1
> 250 °C | O=C(c1cc2ccccc2s1)N1CCc2[nH]c3c(cnc4cc(Cl)ccc43)c2C1
105 °C | COC1C(Oc2ccc(N)cc2)OC(CO)C(OC2OC(CO)C(O)C(OC)C2O)C1O (stereo not given)
86 to 88 °C | CCOP(=O)(COCCC(CO)On1cnc2c(N)ncnc21)OCC (stereo not given)

melting point | Structure (SMILES)
211 to 216 °C | O=C(O)c1ccc2ccc(S)cc2c1
225 to 227 °C | Cc1cn(-c2cc(NC(=O)c3ccc(Cl)c(C#Cc4ccc(NC5CCC5)nn4)c3)cc(C(F)(F)F)c2)cn1
194 to 196 °C | CC1Cc2cc3c(cc2C(c2ccc([N+](=O)[O-])cc2)=NN1C1=NCCO1)OCO3 (stereo not given)
164 to 166 °C | O=c1nc(-c2cccc(S(=O)CCCc3ccccc3)n2)sc2ccccc12 (stereo not given)
110 to 119 °C | COc1nc(CO)c(CO)n1C
162 °C | CCOC(=O)C(=Cc1ccccc1)c1csc(N)n1
155 to 158 °C | O=S(=O)(CCO)Nc1cc(C(c2cc(F)ccc2F)S(=O)(=O)c2ccc(Cl)cc2)c(Cl)cn1 (stereo not given)
76 to 77 °C | CC(=O)c1nc2cc(Cl)ccc2cc1OCc1ccccc1
71 to 74 °C | CCCCOP(=O)(CCCCC1(C(=O)NCC(F)(F)F)c2ccccc2-c2ccccc21)OCCCC
122 to 126 °C | CC1(C)CC(OC(=O)CCC(=O)OC2CC(C)(C)N(OC3CCCCC3)C(C)(C)C2)CC(C)(C)N1OC1CCCCC1
104 to 105 °C | COCCOCc1c(F)cccc1-c1ccc2nc(-c3ccc(Cl)cc3)cn2c1
150 to 156 °C | CC1CCC2C3CCC4CC(O)CCC4(C)C3C(N(C)C)CC12C (stereo not given)
250 to 252 °C | COc1nc2cc(Cl)ccc2n2cnnc12
41 °C | S=c1c(Br)coc2ccccc12
160 °C | CNC(=O)c1cc(N2CCCC2)cc(C)c1C(N)=O
118 to 120 °C | O=C(NC1CCN(CCCc2ccccc2)C1)C12CC3CC(CC(C3)C1)C2 (stereo not given)
210 to 212 °C | CC(C)(O)c1ccc(-c2cnc3c(n2)N(CCC2CCOCC2)CC(=O)N3)cc1
146 to 148 °C | Fc1ccc(Cn2c(NC3CCN(CCSc4ncccn4)CC3)nc3ccccc32)cc1
157 to 158 °C | CCc1cc(CCCOc2c(C)cc(-c3noc(C(F)(F)F)n3)cc2C)on1
185 to 187 °C | COc1ccc(-c2cc(C(=O)O)c(=O)n(CCCc3ccc(F)cc3)n2)cc1F
87 to 88 °C | COc1cc2ccc(C=O)cc2cc1OC
160 to 164 °C | COc1ccc(C(CC(=O)O)N2C(=O)c3ccccc3C2=O)cc1 (stereo not given)
118 °C | CCOC(=O)c1cnc2c(F)c(F)ccc2c1
139 to 142 °C | Cc1ccc(C(=O)O)c(C2=NC(=O)C(C)(C(C)C)N2)n1 (stereo not given)

melting point | Structure (SMILES)
179 to 180 °C | COc1cccc([C@H]2O[C@H](CC(=O)Nc3cc(Cl)cc4cc(C(=O)O)oc34)C(=O)N(CC(C)(C)CO)c3ccc(Cl)cc32)c1OC
113 to 115 °C | O=C(O)C(=O)c1ccc(OCCCCSc2ccc3ccccc3c2)cc1
98 to 100 °C | CCn1nc(C(F)(F)F)c(CS(=O)(=O)C2=NOC(C)(C)C2)c1OC(F)F
135 °C | O[C@@H]1CN=C(c2ccccc2)O[C@H]1c1ccccc1 (racemic)
172 °C | CN1C(=O)CC[C@]2(C)c3ccc(-c4cc(Cl)cc(Cl)c4)cc3CC[C@@H]12
96 to 99 °C | CCN1CCN(C(=O)c2ccc([N+](=O)[O-])cc2C)CC1
210 to 213 °C | O=c1c(-c2ccccc2)c[nH]n1-c1cccc(C(F)(F)F)c1
158 to 160 °C | CC(C)Oc1ccc2c(c1)N(C)C(=O)N(c1ccc(C(F)(F)F)cc1)S2(=O)=O
229 to 232 °C | O=c1cc(-c2ccoc2)c2ccc(O)cc2o1
235 to 237 °C | CC1=CC(N)=NC(c2ccccc2C(F)(F)F)N1c1n[nH]c2ccccc12 (stereo not given)
152 to 153 °C | Oc1ccc(C2CCC3(CC2)OCCO3)cc1
242 °C | CC(C)NC(=S)Nc1nc2ccc(OC(F)(F)F)cc2s1
208 to 209 °C | O=C(Nc1cc(-c2ccc(Cl)cc2)no1)c1c(Cl)cccc1Cl
91 to 93 °C | O=C(NCCNCC(O)COc1ccc(OCCOCC2CCC2)cc1)N1CCOCC1 (stereo not given)
134 to 136 °C | C#Cc1ccc(C#Cc2ccncc2)s1
96 °C | COC(=O)c1ccc(-c2ccccn2)cc1
227 to 228 °C | O=C(O)C=Cc1cn(-c2ccccc2)nc1-c1ccc(Cl)cc1
107 to 109 °C | CCN(C(=O)c1ccc(Cl)c(Cl)c1)c1ccc(C)cc1CCC(=O)O
98 to 99 °C | COc1cc(C(=O)N[C@@H]2CCN(C)C2)ccc1Nc1ncc2c(n1)N(C1CCCCC1)CC(F)(F)C(=O)N2C
160 °C | CC(Nc1ccc(Oc2ccccc2)cc1)C(=O)O (stereo not given)
110 to 113 °C | NS(=O)(=O)C1=CC2=C(OCCO)CCSC2S1 (stereo not given)

Structure (SMILES) | melting point
O=C1CN=C(c2ccc(O)cc2)c2cc(Cl)ccc2N1 | 271 to 272 °C
Cc1cc(C)c(S(=O)(=O)N=[N+]=[N-])c(C)c1S(=O)(=O)N=[N+]=[N-] | 54 to 56 °C
CC1=CC(=O)C=C2CC(C)C3C4CCC(=O)C4(C)CCC3C12C (stereo not given) | 148 to 151 °C
CC1(C)SC(c2cccnc2)NC1C(=O)O (stereo not given) | 164 to 165 °C
CCCCOc1ccc(OCC2(O)CN3CCC2CC3)cc1 (stereo not given) | 110 to 112 °C
COC(=O)c1ccc(CC(C)NCC(O)c2ccc(O)c(NS(C)(=O)=O)c2)cc1 (stereo not given) | 133 to 140 °C
COc1cc(C=CC(=O)OC2CC3CC(OC(=O)Cc4cccc(O)c4)CC2N3C)cc(OC)c1OC (stereo not given) | 53 to 57 °C

Reference: a melting point compilation (Tetko et al.; mined from patent text by program, amines drawn as free bases though some values may be those of a salt)
